Data published in patent US10533164B2, “Mutant sialidase having trans-sialidase activity for use in production of sialylated glycans” (priority 2013, dated 2020).

How the values were obtained:
[1] = system: Lactobacillus acidophilus (NCFM, ATCC 700396); experiment: Bacterial growth on sialylated glycans; assay type: cell-based; conditions: L. acidophilus; substrate 10 g/L in MRS-medium; average of 3 replicates
[2] = system: Bifidobacterium longum (BI-05, DGCC 9917); experiment: Bacterial growth on sialylated glycans; assay type: cell-based; conditions: B. longum 9917; substrate 10 g/L in MRS-medium; average of 3 replicates
[3] = system: Bifidobacterium longum infantis (DGCC 2238); experiment: Bacterial growth on sialylated glycans; assay type: cell-based; conditions: B. infantis 2238; substrate 10 g/L in MRS-medium; average of 3 replicates
[4] = system: group of probiotic strains; experiment: Bacterial growth on sialylated glycans, probiotic strains as a group; assay type: cell-based
[5] = system: Bifidobacterium longum infantis (DGCC 233); experiment: Bacterial growth on sialylated glycans; assay type: cell-based; conditions: B. infantis 233; for Area under the growth curve: substrate 10 g/L in MRS-medium, average of 3 replicates
[6] = system: Bifidobacterium longum longum (DGCC 232); experiment: Bacterial growth on sialylated glycans; assay type: cell-based; conditions: B. longum 232; for Area under the growth curve: substrate 10 g/L in MRS-medium, average of 3 replicates
[7] = system: Clostridium perfringens (ATCC 13124); assay type: cell-based; conditions: C. perfringens; substrate 10 g/L in MRS-medium; average of 3 replicates
[8] = system: Bifidobacterium lactis (HN019, DGCC2013); experiment: Bacterial growth on sialylated glycans; assay type: cell-based; conditions: B. lactis; substrate 10 g/L in MRS-medium; average of 3 replicates
[9] = system: Bifidobacterium longum infantis (DGCC 1497); experiment: Bacterial growth on sialylated glycans; assay type: cell-based; conditions: B. infantis 1497; for Area under the growth curve: substrate 10 g/L in MRS-medium, average of 3 replicates
[10] = Trans-sialidase activity assay (fluorescence-based); assay type: biochemical; conditions: for trans-sialidase activity relative to Tr6 parent (product formation, FIG. 4): mutants from shake flask cultures, cGMP donor, MU-Gal acceptor
Description: The invention provides a method for assaying the mutant trans-sialidase of the invention, that may for example be obtained by recombinant expression. Example 2.1 describes a fluorescence-based assay employing cGMP-bound sialic acid (for example 1 mM) as donor substrate and methylumbelliferyl-β-D-galactopyranoside (MU-Gal) as the acceptor (for example 0.5 mM), where the reaction is performed in a 50 mM phosphate-citrate (pH 6) at 30° C.
Trans-sialidase activity was assayed as described previously but with the following modifications. Reactions were performed in 50 mM phosphate-citrate (pH 6) at 30° C. using 2.9 μg/mL enzyme. The assay employed 1 mM cGMP-bound sialic acid as donor substrate and MU-Gal as the acceptor. MU-Gal at 0.5 mM was the highest final concentration to be tested due to its low solubility in aqueous solution. A solution of 87 mM MU-Gal in DMSO was diluted to 2 mM in 50 mM phosphate-citrate buffer (pH 6) immediately before preparing the reactions. When assaying crude enzyme preparations from P. pastoris, a background signal was observed, and attributed to cleavage of MU-Gal by endogenous β-galactosidase. This background signal could be removed by washing the column eight times with 440 μL of 5 mM HCl after sample application without desorption of the sialylated product and this was therefore done routinely.
To assess the performance of the mutant enzymes, they were produced by recombinant expression in P. pastoris, transformed with the respective mutant gene, by growth in shake flask cultures. The trans-sialidase activity of the expressed mutant enzymes was measured with a fluorescence-based assay using cGMP as sialic acid donor and methylumbelliferyl-β-D-galactopyranoside (MU-Gal) as acceptor (FIG. 4). As the detected product is a measure of both the trans-sialidase activity (product formation) and hydrolase activity (product degradation) the assay provides an effective screen for mutants having a higher trans-sialidase to hydrolase activity ratio.

[11] = Sialidase (hydrolase) activity assay; assay type: biochemical; conditions: substrate pNP-Neu5Ac; compared with Tr6
Description: Sialidase activity was measured in a reaction containing 50 mM phosphate-citrate buffer (pH 7), 0.75 mM pNP-NeuAc and 3 μg/mL sialidase enzyme. Reactions were initiated by addition of substrate and followed spectrophotometrically at 410 nm at 30° C. pH 7 was chosen to enable detection of released pNP in a continuous assay. Reaction rates were normalized as % of the activity of the Tr6 parent enzyme. For measurement of hydrolysis of natural substrates, the assay was performed with either 1 mM 3′-sialyllactose, 1 mM 6′-sialyllactose or 1 mM cGMP-bound sialic acid in 50 mM phosphate-citrate buffer (pH 5) using 1 μg/mL enzyme. Reactions were started by addition of enzyme and stopped by adding H2SO4 to 45 mM final concentration. Quantification of free sialic acid was performed using a 2-thiobarbituric acid assay with the modification that butanol extraction was substituted with mixing with dimethyl sulfoxide (DMSO).

Row | Molecule | Area under the growth curve [1] [OD600 × min] | Area under the growth curve [2] [OD600 × min] | Area under the growth curve [3] [OD600 × min] | growth promotion (in words) [4] | Area under the growth curve [5] [OD600 × min] | Area under the growth curve [6] [OD600 × min] | Area under the growth curve [7] [OD600 × min] | Area under the growth curve [8] [OD600 × min] | growth promotion (in words) [9] | Area under the growth curve [9] [OD600 × min] | growth promotion (in words) [5] | growth promotion (in words) [6] | trans-sialidase activity relative to Tr6 parent (product formation, FIG. 4) [10] | hydrolase activity (FIG. 5A) [11] | trans-sialylated product yield (maximum product formation, FIG. 5B) ([10]; purified enzyme from 5 L fermentor, time course, compared with Tr6)
1 | CC(=O)NC1C(O)CC(OC2C(O)C(CO)OC(OCC3OC(O)C(O)C(O)C3O)C2O)(C(=O)O)OC1C(O)C(O)CO (stereo not drawn) [S-melibiose, SA-α-Gal-1,6-α-Glc] | 192 ± 4 | 70 ± 8 | 302 ± 2 | did not appear to promote growth | 14 ± 6 | 104 ± 17 |  |  |  |  |  |  |  |  | 
2 | SA-α-Fuc [S-fucose] | 188 ± 18 | 114 ± 15 | 285 ± 15 |  | 71 ± 6 | 192 ± 20 | 811 ± 48 | 192 ± 27 | promoted growth | 149 ± 2 | promoted growth | promoted growth |  |  | 
3 | SA-α-Gal-1,4-β-Fru [S-lactulose] | 128 ± 2 | 34 ± 14 | 269 ± 20 |  | 109 ± 20 | 134 ± 19 | 541 ± 17 | 122 ± 18 |  | 34 ± 2 |  |  |  |  | 
4 | SA-α-Glc-1,4-α-Glc [S-maltose] | 193 ± 12 | 101 ± 6 | 158 ± 24 | did not appear to promote growth | 30 ± 4 | 122 ± 31 | 844 ± 99 | 102 ± 8 |  |  |  |  |  |  | 
5 | Tr6 P98A: Tr6 mutant, reversion of mutation P98A (protein) LAPGSSRVELFKRKNSTVPFEESNGTIRERVVHSFRLPTIVNVDGVMVAIADARYETSFDNSFIETAVKYSVDDGATWNTQIAIKNSRASSVSRVVDATVIVKGNKLYILVGSFNKTRNYWTQHRDGSDWEPLLVVGEVTKSAANGKTTATISWGKPVSLKPLFPAEFDGILTKEFVGGVGAAIVASNGNLVYPVQIADMGGRVFTKIMYSEDDGNTWKFAEGRSKFGCSEPAVLEWEGKLIINNRVDYNRRLVYESSDMGKTWVEALGTLSHVWTNSPTSNQPDCQSSFVAVTIEGKRVMLFTHPLNLKGRWMRDRLHLWMTDNQRIFDVGQISIGDENSGYSSVLYKDDKLYSLHEINTNDVYSLVFVRLIGELQLMKSVVRTWKEEDNHLASICTPVVPATPPSKGACGAAVPTAGLVGFLSHSANGSVWEDVYRCVDANVANAERVPNGLKFNGVGGGAVWPVARQGQTRRYQFANYRFTLVATVTIDELPKGTSPLLGAGLEGPGDAKLLGLSYDKNRQWRPLYGAAPASPTGSWELHKKYHVVLTMADRQGSVYVDGQPLAGSGNTVVRGATLPDISHFYIGGPRSKGAPTDSRVTVTNVVLYNRRLNSSEIRTLFLSQDMIGTDGGAGTAA |  |  |  |  |  |  |  |  |  |  |  |  | reduction in trans-sialidase activity |  | 
6 | Tr6 Y249G: Tr6 mutant, reversion of mutation Y249G (protein) LAPGSSRVELFKRKNSTVPFEESNGTIRERVVHSFRLPTIVNVDGVMVAIADARYETSFDNSFIETAVKYSVDDGATWNTQIAIKNSRASSVSRVVDPTVIVKGNKLYILVGSFNKTRNYWTQHRDGSDWEPLLVVGEVTKSAANGKTTATISWGKPVSLKPLFPAEFDGILTKEFVGGVGAAIVASNGNLVYPVQIADMGGRVFTKIMYSEDDGNTWKFAEGRSKFGCSEPAVLEWEGKLIINNRVDGNRRLVYESSDMGKTWVEALGTLSHVWTNSPTSNQPDCQSSFVAVTIEGKRVMLFTHPLNLKGRWMRDRLHLWMTDNQRIFDVGQISIGDENSGYSSVLYKDDKLYSLHEINTNDVYSLVFVRLIGELQLMKSVVRTWKEEDNHLASICTPVVPATPPSKGACGAAVPTAGLVGFLSHSANGSVWEDVYRCVDANVANAERVPNGLKFNGVGGGAVWPVARQGQTRRYQFANYRFTLVATVTIDELPKGTSPLLGAGLEGPGDAKLLGLSYDKNRQWRPLYGAAPASPTGSWELHKKYHVVLTMADRQGSVYVDGQPLAGSGNTVVRGATLPDISHFYIGGPRSKGAPTDSRVTVTNVVLYNRRLNSSEIRTLFLSQDMIGTDGGAGTAA |  |  |  |  |  |  |  |  |  |  |  |  | reduction in trans-sialidase activity |  | 
7 | Tr6 D363E: Tr6 sialidase mutant with amino acid change D363E (protein) LAPGSSRVELFKRKNSTVPFEESNGTIRERVVHSFRLPTIVNVDGVMVAIADARYETSFDNSFIETAVKYSVDDGATWNTQIAIKNSRASSVSRVVDPTVIVKGNKLYILVGSFNKTRNYWTQHRDGSDWEPLLVVGEVTKSAANGKTTATISWGKPVSLKPLFPAEFDGILTKEFVGGVGAAIVASNGNLVYPVQIADMGGRVFTKIMYSEDDGNTWKFAEGRSKFGCSEPAVLEWEGKLIINNRVDYNRRLVYESSDMGKTWVEALGTLSHVWTNSPTSNQPDCQSSFVAVTIEGKRVMLFTHPLNLKGRWMRDRLHLWMTDNQRIFDVGQISIGDENSGYSSVLYKDDKLYSLHEINTNEVYSLVFVRLIGELQLMKSVVRTWKEEDNHLASICTPVVPATPPSKGACGAAVPTAGLVGFLSHSANGSVWEDVYRCVDANVANAERVPNGLKFNGVGGGAVWPVARQGQTRRYQFANYRFTLVATVTIDELPKGTSPLLGAGLEGPGDAKLLGLSYDKNRQWRPLYGAAPASPTGSWELHKKYHVVLTMADRQGSVYVDGQPLAGSGNTVVRGATLPDISHFYIGGPRSKGAPTDSRVTVTNVVLYNRRLNSSEIRTLFLSQDMIGTDGGAGTAA |  |  |  |  |  |  |  |  |  |  |  |  | enhanced trans-sialidase activity | reduced hydrolase activity | similarly low product formation profile as Tr6
